The values that follow come from US20260207794A1, “NOVEL COMPOUNDS FOR DIAGNOSIS” (AC IMMUNE SA, priority 2022, published 2026).

Where a name gives a salt, the structure may show the parent alone.

This experiment has as its target T1, PD brain-derived alpha-synuclein aggregates (Homo sapiens, UniProt P37840).
T1 construct: from tissue; host or cells: human PD donor brain, sarkosyl-insoluble pellet
Kind of experiment: Micro-radiobinding competition assay. Format: binding. The following applies: for Competition at 100 nM (%): 100 nM example compound; for Competition at 100 nM (%) / Competition at 1 μM (%): competition over [3H]-alpha-syn reference ligand (20 nM or 30 nM), human PD brain-derived a-syn aggregates; for Competition at 1 μM (%): 1 μM example compound; for Ki: mean of two independent experiments, PD brain-derived homogenates from two different donors. How it is done: The procedure was adapted from the protocol described in Spillantini et al., 1998. Frozen tissue blocks from PD donors were thawed on ice and homogenized using a glass dounce homogenizer. The homogenate was then centrifuged at 11,000×g (12,700 RPM) in an ultracentrifuge (Beckman, XL100K) for 20 minutes at 4° C. using a pre-cooled 70.1 rotor (Beckman, 342184). Pellets were resuspended in extraction buffer [10 mM Tris-HCl pH 7.4, 10% sucrose, 0.85 M NaCl, 1% protease inhibitor (Calbiochem 539131), 1 mM EGTA, 1% phosphatase inhibitor (Sigma P5726 and P0044)] and centrifuged at 15,000×g (14,800 RPM, a 70.1 Ti rotor) for 20 minutes at 4° C. Pellets were discarded and sarkosyl (20% stock solution, Sigma L7414) was added to the supernatants to a final concentration of 1% and stirred at room temperature for one hour. This solution was then centrifuged at 100,000×g (38,000 RPM, 70.1 Ti rotor) for one hour at 4° C. Pellets containing enriched alpha-synuclein aggregates were resuspended in PBS per gram of brain initially used and stored at −80° C. until use.
PD brain-derived alpha-synuclein aggregates were spotted onto microarray slides. The slides were incubated with [^3H]-alpha-synuclein reference at 20 nM or 30 nM and the example compounds (non-radiolabelled) at 1 μM and 100 nM. In some cases, the non-radiolabelled example compounds were further assessed for a range of different concentrations, varying from 0.05 nM to 2 μM. After incubation, slides were washed and scanned by a real-time autoradiography system (BeaQuant, ai4R). Quantification of signal was performed by using the image analysis software Beamage (ai4R).
Non-specific signal was determined with an excess of non-radiolabelled alpha-syn reference compound (2 μM) and specific binding was calculated by subtracting the non-specific signal from the total signal. Competition was calculated as percentage, where 0% was defined as the specific binding in the presence of vehicle and 100% as the values obtained in the presence of excess of the non-radiolabelled alpha-syn reference compound. Ki values were calculated in GraphPad Prism7 by applying a nonlinear regression curve fit using a one site, specific binding model. All measurements were performed with at least two technical replicates. For compounds tested in more than one experiment, the mean of the replicates or Ki values in independent experiments is reported.

For `O=C1N(c2cccnc2)Cc2cc(-c3ccc(N4CC[C@@H](F)C4)nc3)cn21` [Example 1, (R)-6-(6-(3-fluoropyrrolidin-1-yl)pyridin-3-yl)-2-(pyridin-3-yl)-1H-pyrrolo[1,2-c]imidazol-3(2H)-one Hydrochloride], the “Competition at 100 nM (%)” value stood at 75% and the “Competition at 1 μM (%)” value is given as 95%.

As usually defined, the Ki is a measure of affinity in units of concentration, obtained from inhibition or displacement. For the compound `O=C1N(c2cccnc2)Cc2nc(-c3ccc(N4CC[C@@H](F)C4)nc3)cn21` [Example 2, (R)-2-(6-(3-fluoropyrrolidin-1-yl)pyridin-3-yl)-6-(pyridin-3-yl)-6,7-dihydro-5H-imidazo[1,5-a]imidazol-5-one Hydrochloride], the “Competition at 100 nM (%)” value turned out to be 63%, the “Competition at 1 μM (%)” value is 86% and the Ki is 124 nM.

As for `O=C1N(c2cccnc2)Cc2nc(-c3ccc(N4CC[C@H](F)C4)nc3)cn21` [Example 3, (S)-2-(6-(3-fluoropyrrolidin-1-yl)pyridin-3-yl)-6-(pyridin-3-yl)-6,7-dihydro-5H-imidazo[1,5-a]imidazol-5-one Hydrochloride], the “Competition at 100 nM (%)” value is 59%, the “Competition at 1 μM (%)” value is reported as 85% and the Ki turned out to be 97 nM.

Consider `O=C1N(c2cccnc2)Cc2cc(-c3ccc(F)nc3)cn21` [Example 4, 6-(6-fluoropyridin-3-yl)-2-(pyridin-3-yl)-1H-pyrrolo[1,2-c]imidazol-3(2H)-one], for which the “Competition at 100 nM (%)” value was 51% and the “Competition at 1 μM (%)” value is listed as 52%.

As for `Cn1cc(N2Cc3cc(-c4ccc(N5CC[C@H](F)C5)nc4)cn3C2=O)cn1` [Example 5, (S)-6-(6-(3-fluoropyrrolidin-1-yl)pyridin-3-yl)-2-(1-methyl-1H-pyrazol-4-yl)-1,2-dihydro-3H-pyrrolo[1,2-c]imidazol-3-one Hydrogen Chloride Salt], the “Competition at 100 nM (%)” value was determined as 87% and the “Competition at 1 μM (%)” value was found to be 102%.

Take `Cn1cc(N2Cc3cc(-c4ccc(N5CC[C@@H](F)C5)nc4)cn3C2=O)cn1` [Example 6, (R)-6-(6-(3-fluoropyrrolidin-1-yl)pyridin-3-yl)-2-(1-methyl-1H-pyrazol-4-yl)-1,2-dihydro-3H-pyrrolo[1,2-c]imidazol-3-one Hydrogen Chloride Salt]: the “Competition at 100 nM (%)” value is on record as 82% and the “Competition at 1 μM (%)” value was determined as 100%.

With `O=C1N(c2cccnc2)Cc2cc(-c3ccc(N4CC[C@H](F)C4)nc3)cn21` [Example 7, (S)-6-(6-(3-fluoropyrrolidin-1-yl)pyridin-3-yl)-2-(pyridin-3-yl)-1,2-dihydro-3H-pyrrolo[1,2-c]imidazol-3-one Hydrogen Chloride Salt], the “Competition at 100 nM (%)” value came to 69% and the “Competition at 1 μM (%)” value stood at 85%.
